# Measurements as given in US8735414B2 (priority 2009, dated 2014).
# Test system: bicistronic HCV replicon (replicon RNA, GenBank Accession No. AJ242654)
# Test: HCV Replicon Assay
# Format: cell-based
# Details: Hepatitis C virus, 72 h, read-out: Replicon IC50
row,Structure (SMILES),IC50 [nM]
1,"C[C@H](NS(=O)(=O)c1ccc(-c2c(C(N)=O)c3cc(F)c(C4CC4)cc3n2C2CCCC2)nc1)C(F)(F)F [compound 838, 1-cyclopentyl-6-cyclopropyl-5-fluoro-2-(5-{[(2S)-1,1,1-trifluoropropan-2-yl]sulfamoyl}pyridin-2-yl)-1H-indole-3-carboxamide]",< 500
2,"Cc1ccc2c(c1)c(C(N)=O)c(-c1ccc(S(=O)(=O)N[C@@H](C)C(F)(F)F)cn1)n2-c1ncccn1 [compound 846, 5-methyl-1-(pyrimidin-2-yl)-2-(5-{[(2S)-1,1,1-trifluoropropan-2-yl]sulfamoyl}pyridin-2-yl)-1H-indole-3-carboxamide]",< 500
3,"Cc1cc2c(cc1F)c(C#N)c(-c1cc(C)c(S(=O)(=O)N[C@@H](C)C(F)(F)F)cn1)n2-c1ncccn1 [compound 853, 6-[3-cyano-5-fluoro-6-methyl-1-(pyrimidin-2-yl)-1H-indol-2-yl]-4-methyl-N-[(2S)-1,1,1-trifluoropropan-2-yl]pyridine-3-sulfonamide]",< 500
4,"Cc1cc2c(cc1F)c(C#N)c(-c1cc(C)c(S(=O)(=O)N[C@@H](C)C(F)(F)F)cn1)n2-c1ccccn1 [compound 854, 6-[3-cyano-5-fluoro-6-methyl-1-(pyridin-2-yl)-1H-indol-2-yl]-4-methyl-N-[(2S)-1,1,1-trifluoropropan-2-yl]pyridine-3-sulfonamide]",< 500
5,"Cc1cc2c(cc1F)c(C#N)c(-c1ccc(S(=O)(=O)NC3(C(F)(F)F)CC3)cn1)n2C1CCCCC1 [compound 856, 6-(3-cyano-1-cyclohexyl-5-fluoro-6-methyl-1H-indol-2-yl)-N-[1-(trifluoromethyl)cyclopropyl]pyridine-3-sulfonamide]",< 500
6,"CCc1cc2c(cc1F)c(C#N)c(-c1ccc(S(=O)(=O)NC(C)(C)C(F)(F)F)cn1)n2-c1ncccn1 [compound 859, 6-[3-cyano-6-ethyl-5-fluoro-1-(pyrimidin-2-yl)-1H-indol-2-yl]-N-(1,1,1-trifluoro-2-methylpropan-2-yl)pyridine-3-sulfonamide]",500 to 2000
7,"CC(C)(NS(=O)(=O)c1ccc(-c2c(C#N)c3cc(F)c(OC(F)F)cc3n2C2CCCC2)nc1)C(F)(F)F [compound 862, 6-[3-cyano-1-cyclopentyl-6-(difluoromethoxy)-5-fluoro-1H-indol-2-yl]-N-(1,1,1-trifluoro-2-methylpropan-2-yl)pyridine-3-sulfonamide]",< 500
8,"CCc1cc2c(cc1F)c(C#N)c(-c1ccc(S(=O)(=O)NC3(C(F)(F)F)CC3)cn1)n2-c1ncccn1 [compound 864, 6-[3-cyano-6-ethyl-5-fluoro-1-(pyrimidin-2-yl)-1H-indol-2-yl]-N-[1-(trifluoromethyl)cyclopropyl]pyridine-3-sulfonamide]",< 500
9,"Cc1cnc(-n2c(-c3ccc(S(=O)(=O)N[C@@H](C)C(F)(F)F)cn3)c(C#N)c3cc(F)c(C)cc32)cn1 [compound 865, 6-[3-cyano-5-fluoro-6-methyl-1-(5-methylpyrazin-2-yl)-1H-indol-2-yl]-N-[(2S)-1,1,1-trifluoropropan-2-yl]pyridine-3-sulfonamide]",< 500
10,"COc1ccnc(-n2c(-c3ccc(S(=O)(=O)N[C@@H](C)C(F)(F)F)cn3)c(C#N)c3cc(F)c(C)cc32)n1 [compound 866, 6-[3-cyano-5-fluoro-1-(4-methoxypyrimidin-2-yl)-6-methyl-1H-indol-2-yl]-N-[(2S)-1,1,1-trifluoropropan-2-yl]pyridine-3-sulfonamide]",500 to 2000
11,"Cc1ccnc(-n2c(-c3ccc(S(=O)(=O)N[C@@H](C)C(F)(F)F)cn3)c(C#N)c3cc(F)c(C)cc32)n1 [compound 873, 6-[3-cyano-5-fluoro-6-methyl-1-(4-methylpyrimidin-2-yl)-1H-indol-2-yl]-N-[(2S)-1,1,1-trifluoropropan-2-yl]pyridine-3-sulfonamide]",< 500
12,"CCc1cc2c(cc1F)c(C#N)c(-c1ccc(S(=O)(=O)N[C@H](C)C(F)(F)F)cn1)n2-c1ncccn1 [compound 878, 6-[3-cyano-6-ethyl-5-fluoro-1-(pyrimidin-2-yl)-1H-indol-2-yl]-N-[(2R)-1,1,1-trifluoropropan-2-yl]pyridine-3-sulfonamide]",< 500
13,"CCc1cc2c(cc1F)c(C#N)c(-c1ccc(S(=O)(=O)N[C@H](C)C(F)(F)F)cn1)n2-c1ccccn1 [compound 879, 6-[3-cyano-6-ethyl-5-fluoro-1-(pyridin-2-yl)-1H-indol-2-yl]-N-[(2R)-1,1,1-trifluoropropan-2-yl]pyridine-3-sulfonamide]",< 500
14,"CCc1cc2c(cc1F)c(C(N)=O)c(-c1ccc(S(=O)(=O)NC(C)(C)C)cn1)n2-c1ccccn1 [compound 883, 2-(5-(N-tert-butylsulfamoyl)pyridin-2-yl)-6-ethyl-5-fluoro-1-(pyridin-2-yl)-1H-indole-3-carboxamide]",< 500
15,"C=Cc1cc2c(cc1F)c(C#N)c(-c1ccc(S(=O)(=O)N[C@@H](C)C(F)(F)F)cn1)n2-c1ncccn1 [compound 908, 6-[3-cyano-6-ethenyl-5-fluoro-1-(pyrimidin-2-yl)-1H-indol-2-yl]-N-[(2S)-1,1,1-trifluoropropan-2-yl]pyridine-3-sulfonamide]",< 500
16,"CCc1cc2c(cc1F)c(C(N)=O)c(-c1ccc(S(=O)(=O)N[C@@H](C)C(F)(F)F)cn1)n2-c1ccccn1 [compound 909, 6-ethyl-5-fluoro-1-(pyridin-2-yl)-2-(5-{[(2S)-1,1,1-trifluoropropan-2-yl]sulfamoyl}pyridin-2-yl)-1H-indole-3-carboxamide]",500 to 2000
17,"CCc1cc2c(cc1F)c(C#N)c(-c1ccc(S(=O)(=O)N[C@@H](C)C(F)(F)F)cn1)n2C1CC1 [compound 910, 6-(3-cyano-1-cyclopropyl-6-ethyl-5-fluoro-1H-indol-2-yl)-N-[(2S)-1,1,1-trifluoropropan-2-yl]pyridine-3-sulfonamide]",< 500
18,"CC(O)c1cc2c(cc1F)c(C#N)c(-c1ccc(S(=O)(=O)N[C@@H](C)C(F)(F)F)cn1)n2-c1ncccn1 (stereo partly drawn) [compound 911, 6-[3-cyano-5-fluoro-6-(1-hydroxyethyl)-1-(pyrimidin-2-yl)-1H-indol-2-yl]-N-[(2S)-1,1,1-trifluoropropan-2-yl]pyridine-3-sulfonamide]",< 500
19,"Cc1cc2c(cc1F)c(C#N)c(-c1ccc(S(=O)(=O)N[C@@H](C)C(F)(F)F)cn1)n2-c1ncc(F)cn1 [compound 924, 6-[3-cyano-5-fluoro-1-(5-fluoropyrimidin-2-yl)-6-methyl-1H-indol-2-yl]-N-[(2S)-1,1,1-trifluoropropan-2-yl]pyridine-3-sulfonamide]",< 500
20,"C[C@H](NS(=O)(=O)c1ccc(-c2c(C#N)c3cc(F)c(C4(C)OCCO4)cc3n2-c2ncccn2)nc1)C(F)(F)F [compound 927, 6-[3-cyano-5-fluoro-6-(2-methyl-1,3-dioxolan-2-yl)-1-(pyrimidin-2-yl)-1H-indol-2-yl]-N-[(2S)-1,1,1-trifluoropropan-2-yl]pyridine-3-sulfonamide]",< 500
21,"CC(C)(NS(=O)(=O)c1ccc(-c2c(C(=O)O)c3cc(F)c(OC(F)F)cc3n2C2CCCCC2)nc1)C(F)(F)F [compound 928, 1-cyclohexyl-6-(difluoromethoxy)-5-fluoro-2-{5-[(1,1,1-trifluoro-2-methylpropan-2-yl)sulfamoyl]pyridin-2-yl}-1H-indole-3-carboxylic acid]",< 500
22,"CCc1cc2c(cc1F)c(C#N)c(-c1ccc(S(=O)(=O)N[C@@H](C)C(F)(F)F)cn1)n2-c1ccc(C)cn1 [compound 931, 6-[3-cyano-6-ethyl-5-fluoro-1-(5-methylpyridin-2-yl)-1H-indol-2-yl]-N-[(2S)-1,1,1-trifluoropropan-2-yl]pyridine-3-sulfonamide]",< 500
23,"CC(=O)c1cc2c(cc1F)c(C(C)=O)c(-c1ccc(S(=O)(=O)NC(C)(C)C)cn1)n2-c1ncccn1 [compound 939, N-tert-butyl-6-(3,6-diacetyl-5-fluoro-1-(pyrimidin-2-yl)-1H-indol-2-yl)pyridine-3-sulfonamide]",2000 to 5000
24,"CCc1cc2c(cc1F)c(C#N)c(-c1ccc(S(=O)(=O)N[C@@H](C)C(F)(F)F)cn1)n2C1=NC=CCN1 [compound 941, 6-[3-cyano-1-(1,6-dihydropyrimidin-2-yl)-6-ethyl-5-fluoro-1H-indol-2-yl]-N-[(2S)-1,1,1-trifluoropropan-2-yl]pyridine-3-sulfonamide]",500 to 2000
25,"CCc1cc2c(cc1F)c(C#N)c(-c1ccc(S(=O)(=O)N[C@@H](C)C(F)(F)F)cn1)n2-c1ncc(F)cn1 [compound 946, 6-[3-cyano-6-ethyl-5-fluoro-1-(5-fluoropyrimidin-2-yl)-1H-indol-2-yl]-N-[(2S)-1,1,1-trifluoropropan-2-yl]pyridine-3-sulfonamide]",< 500
26,"[2H][C@@](C)(NS(=O)(=O)c1ccc(-c2c(C#N)c3cc(F)c(CC)cc3n2-c2ncccn2)nc1)C(F)(F)F [compound 956, 6-[3-cyano-6-ethyl-5-fluoro-1-(pyrimidin-2-yl)-1H-indol-2-yl]-N-[(2S)-1,1,1-trifluoro(2-deuterium)propan-2-yl]pyridine-3-sulfonamide]",< 500
27,"Cc1cc2c(cc1F)cc(-c1ccc(S(=O)(=O)N[C@@H](C)C(F)(F)F)cn1)n2-c1cscn1 [compound 957, 6-[5-fluoro-6-methyl-1-(1,3-thiazol-4-yl)-1H-indol-2-yl]-N-[(2S)-1,1,1-trifluoropropan-2-yl]pyridine-3-sulfonamide]",500 to 2000
28,"Cc1cc2c(cc1F)cc(-c1ccc(S(=O)(=O)N[C@@H](C)C(F)(F)F)cn1)n2-c1nncs1 [compound 958, 6-[5-fluoro-6-methyl-1-(1,3,4-thiadiazol-2-yl)-1H-indol-2-yl]-N-[(2S)-1,1,1-trifluoropropan-2-yl]pyridine-3-sulfonamide]",500 to 2000
29,"Cc1cc2c(cc1F)cc(-c1ccc(S(=O)(=O)N[C@@H](C)C(F)(F)F)cn1)n2-c1cncs1 [compound 959, 6-[5-fluoro-6-methyl-1-(1,3-thiazol-5-yl)-1H-indol-2-yl]-N-[(2S)-1,1,1-trifluoropropan-2-yl]pyridine-3-sulfonamide]",< 500
